From patent US20260234180A1, “AMINO ACID DERIVATIVE, PREPARATION METHOD THEREFOR, AND PHARMACEUTICAL COMPOSITION FOR TREATING HEPATITIS, COMPRISING SAME” (priority 2021, published 2026)

Tests used:
HBV virus = assay: HBV infection of HepG2-NTCP cells, Southern blot analysis; type: cell-based, hepatitis B virus (HBV); conditions: 20 μM
Protocol: Specifically, the HepG2-NTCP cell line was cultured on a 6-well plate, incubation was performed overnight, HBV inhibitors were treated at a concentration of 20 μM, and the positive control Myrcludex-B (MyrB) was treated at a concentration of 200 nM, followed by culture for 24 hours. After HBV infection into the cells to make HBV 3000 genome equivalent per ml/cell (Geq/cell), the cell culture medium was replaced (medium changing, MC) a day after the viral infection to remove the virus unattached to cell membranes. In order to measure an amount of virus that entered the cell, medium changing (MC) was performed once more 4 days after viral infection. 2 days after replacement, HBeAg ELISA analysis was performed using a supernatant, and Southern blot analysis was performed with cell pellets.
First, the cell pellets were pipetted with 100 μl of HEPES lysis buffer (10 mM HEPES, 100 mM NaCl, 1 mM EDTA, 1% NP-40), placed on ice for 20 minutes, and then centrifuged with a centrifuge under the conditions at 4° C. and 13000 rpm. After transferring the supernatant only to the new microtube, 4.5 μl of nuclease buffer I (10 mM CaCl2), 12 mM MgCl2, DNase 10 units) was added to carry out a reaction at 37° C. for 2 hours, and 40 μl of 26% PEG solution was added, followed by a reaction on ice for 1 hour. After centrifuging with the centrifuge at 4° C. and 13000 rpm for 30 minutes, and the supernatant was removed cleanly. After releasing the pellets with 100 μl of nuclease buffer II (10 mM Tris, 8 mM CaCl2), 6 mM MgCl2), 287.5 μl of 0.5% SDS buffer (25 mM Tris, 10 mM EDTA, 0.5% SDS, 100 mM NaCl) was added, and 12.5 μl of 20 mg/ml proteinase K was added, followed by a reaction at 37° C. for 2 hours. 400 μl of phenol-chloroform-isoamyl alcohol was added, centrifugation was performed at room temperature at 13000 rpm after voltexing, the supernatant was transferred to a new tube, 40 μl of 3 M NaOAc was added, and 800 μl of 100% ethanol was added for inverting, followed by a reaction overnight at −20° C. After performing centrifugation at 4° C. and 13000 rpm for 30 minutes, 800 μl of 70% ethanol was added and mixed to the pellet obtained by removing the supernatant, centrifugation was performed at 4° C. and 13000 rpm for 10 minutes, and then the supernatant was discarded. The ethanol was dried for 5 minutes to leave only the HBV DNA pellets, and then the pellets were dissolved again in 15 μl of TE buffer (10 mM Tris, 1 mM EDTA). HBV DNA samples were loaded in 1% agarose gel, and electrophoresis was performed. It was then immersed in denature buffer (0.25 N NaOH, 1 M NaCl) for 30 minutes to denature dsDNA of HBV into ssDNA. The DNA in the gel was transferred to a Nylon membrane using a transfer buffer (0.4 M NaOH), the membrane was soaked with a 2×SSC buffer (sigma, cat #85639) for neutralization, followed by drying in air. The membrane was immersed in a church buffer (10% BSA, 0.5 M EDTA, 1 M NaPi, 20% SDS), and the radioisotopes were hybridized using a Mega prime kit (GE healthcare, RPN1607). After washing three times with washing buffer (2×SSC, 0.1% SDS), measurement was performed using radioisotope measurement equipment, and a relative replication rate (%) to the negative control group (Mock) was calculated and shown.

Jurkat cell line = assay: Cytotoxicity, WST-1 cell viability; type: cell-based, human; conditions: 0.2 μM~50 μM, 24 and 48 hours
Protocol: For Example 1 (LCA-Ile), Example 44 (LCA-Val), Example 2 (UDCA-Ile), and Example 3 (UDCA-Val), cytotoxicity was evaluated in the Jurkat cell line, a human T lymphocyte-derived cell line. Jurkat cell lines were seeded at a density of 5×10^4 on a 96 well plate for overnight incubation, and each compound was treated at a concentration of 0.2 μM~50 μM for 24 or 48 hours. WST-1, a reagent for measuring cell viability, was loaded at 10 μl/well, and absorbance was measured at 440 nm using a microplate reader 2 hours later. The mean value of negative control (NC) group treated with only DMSO was calculated as 1 and the cytotoxicity for the remaining experimental group was evaluated.

| SMILES | amount of HBeAg DNA detected compared to the negative control group (Mock) (HBV virus) | cytotoxicity (Jurkat cell line) |
| --- | --- | --- |
| CC[C@@H](C)[C@H](NC(=O)CC[C@@H](C)[C@H]1CC[C@H]2[C@@H]3CC[C@@H]4C[C@H](O)CC[C@]4(C)[C@H]3CC[C@]12C)C(=O)O [Example 1, (2S,3R)-2-((R)-4-((3R,5R,8R,9S,10S,13R,14S,17R)-3-hydroxy-10,13-dimethyl-hexadecahydro-1H-cyclopenta[a]phenanthren-17-yl)pentanamido)-3-methylpentanoic acid] | relatively less amount | barely observed |
| CC[C@@H](C)[C@H](NC(=O)CC[C@@H](C)[C@H]1CC[C@H]2[C@@H]3[C@@H](O)C[C@@H]4C[C@H](O)CC[C@]4(C)[C@H]3CC[C@]12C)C(=O)O [Example 2, (2S,3R)-2-((R)-4-((3R,5S,7S,8R,9S,10S,13R,14S,17R)-3,7-dihydroxy-10,13-dimethyl-hexadecahydro-1H-cyclopenta[a]phenanthren-17-yl)pentanamido)-3-methylpentanoic acid] | relatively less amount | barely observed |
| CC(C)[C@H](NC(=O)CC[C@@H](C)[C@H]1CC[C@H]2[C@@H]3[C@@H](O)C[C@@H]4C[C@H](O)CC[C@]4(C)[C@H]3CC[C@]12C)C(=O)O [Example 3, (S)-2-((R)-4-((3R,5S,7S,8R,9S,10S,13R,14S,17R)-3,7-dihydroxy-10,13-dimethyl-hexadecahydro-1H-cyclopenta[a]phenanthren-17-yl)pentanamido)-3-methylbutanoic acid] | relatively less amount | barely observed |
| CC[C@@H](C)[C@H](NC(=O)CC[C@@H](C)[C@H]1CC[C@H]2[C@@H]3CC[C@@H]4C[C@H](O)CC[C@]4(C)[C@H]3C[C@H](O)[C@]12C)C(=O)O [Example 10, (2S,3R)-2-((R)-4-((3R,5R,8R,9S,10S,12S,13R,14S,17R)-3,12-dihydroxy-10,13-dimethyl-hexadecahydro-1H-cyclopenta[a]phenanthren-17-yl)pentanamido)-3-methylpentanoic acid] | relatively less amount |  |
| CC(C)[C@H](NC(=O)CC[C@@H](C)[C@H]1CC[C@H]2[C@@H]3CC[C@@H]4C[C@H](O)CC[C@]4(C)[C@H]3CC[C@]12C)C(=O)O [Example 44, (S)-2-((R)-4-((3R,5R,8R,9S,10S,13R,14S,17R)-3-hydroxy-10,13-dimethyl-hexadecahydro-1H-cyclopenta[a]phenanthren-17-yl)pentanamido)-3-methylbutanoic acid] | relatively less amount | barely observed |
